{
  "source": "patent US5879896A",
  "about": "“Method of screening for inhibitors of human thyrotropin releasing hormone (TRH) receptor” (Takeda Chemical Industries, Ltd., priority 1993, dated 1999)",
  "key": {"human TRH receptor": {"target": "T1, human TRH receptor (Homo sapiens, UniProt P34981)", "T1 sequence (P34981 1-398)": "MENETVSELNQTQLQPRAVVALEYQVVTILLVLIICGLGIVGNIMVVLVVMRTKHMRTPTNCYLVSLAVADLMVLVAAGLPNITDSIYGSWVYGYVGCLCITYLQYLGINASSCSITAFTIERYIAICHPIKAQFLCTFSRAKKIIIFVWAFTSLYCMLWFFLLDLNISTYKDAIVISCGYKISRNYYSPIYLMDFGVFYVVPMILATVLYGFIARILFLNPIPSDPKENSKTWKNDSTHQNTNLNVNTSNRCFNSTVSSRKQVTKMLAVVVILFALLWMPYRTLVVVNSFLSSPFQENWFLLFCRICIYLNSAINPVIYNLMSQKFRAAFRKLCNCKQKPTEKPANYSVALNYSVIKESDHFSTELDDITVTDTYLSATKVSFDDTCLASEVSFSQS", "experiment": "Antagonism of [3H]TRH binding in CHO dhfr- cells transformed with human TRH receptor DNA (Examples 5 and 6)", "design": "translation frame (open reading frame) of the human TRH receptor was constructed on pUC118; expressed in transfected cells; host or cells: CHO dhfr- cells (plasmid pAKKO1.11 with the human TRH receptor open reading frame)", "settings": "for inhibition at 10 µM / inhibition at 100 µM / inhibition at 1000 µM: 1 h; for Antagonistic binding activity to the human TRH receptor, in words: benzodiazepine compounds, 10 μM to 1 mM; for Antagonistic Rate (%) at Each Concentration (-log M): 60 min"}, "CHO dhfr- cells": {"system": "CHO dhfr- cells", "experiment": "[3H]TRH binding to CHO dhfr- cell line into which no human TRH receptor DNA was introduced (Example 4)", "design": "species or system Chinese hamster", "settings": "no human TRH receptor DNA introduced (FIG. 9)", "protocol": "This plasmid was cleaved with SalI and ClaI. The plasmid obtained in Example 3 in which the translation frame (open reading frame) of the human TRH receptor was constructed on pUC118 was cleaved with HindIII, and repaired with a Klenow fragment, followed by addition of an SalI linker. The resulting fragment was further cleaved with SmaI, and a fragment containing the translation frame (open reading frame) of the human TRH receptor and a ClaI linker were added thereto. This was cleaved with SalI and ClaI, and thereafter, the plasmid DNA previously cleaved with SalI and ClaI was bound thereto to complete an expression plasmid. This plasmid DNA was purified by cesium chloride equilibrium density gradient centrifugation, and partially introduced into the CHO dhfr^- cell line with a gene introduction kit (CellPhect, Pharmacia) by the calcium phosphate precipitation method. The original CHO dhfr^- cell line is impossible to grow in a medium not containing a nucleoside and a nucleotide, because of lack of dhfr phenotype. […] The cells were dissolved in 500 μl of 1% SDS and 0.2N NaOH, and the radioactivity contained therein was measured by use of liquid scintillator A. In order to know the non-specific binding, a group was also prepared to which non-labeled TRH was added to a final concentration of 10 μM in addition to [^3 H] […]"}, "[1]": {"target": "T2, human TRH receptor protein (human)", "T2 chain": "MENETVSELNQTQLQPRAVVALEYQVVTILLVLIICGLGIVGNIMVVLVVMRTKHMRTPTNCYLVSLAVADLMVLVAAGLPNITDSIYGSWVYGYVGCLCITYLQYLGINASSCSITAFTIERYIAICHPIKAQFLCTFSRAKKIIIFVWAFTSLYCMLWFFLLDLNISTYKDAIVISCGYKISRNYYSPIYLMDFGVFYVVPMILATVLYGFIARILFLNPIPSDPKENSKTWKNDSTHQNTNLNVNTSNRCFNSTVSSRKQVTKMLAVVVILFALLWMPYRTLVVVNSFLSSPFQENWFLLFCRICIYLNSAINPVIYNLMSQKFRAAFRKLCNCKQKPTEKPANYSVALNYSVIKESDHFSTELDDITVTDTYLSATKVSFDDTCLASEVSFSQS", "experiment": "competition with 10 nM 3H-TRH, CHO cells expressing human TRH receptor; compound at 10^-5 M"}, "[2]": {"target": "T2, human TRH receptor protein", "experiment": "competition with 10 nM 3H-TRH, CHO cells expressing human TRH receptor; compound at 10^-4 M"}, "[3]": {"settings": "read-out: Antagonistic activity (TABLE 1; percentage to that of the control)"}, "[4]": {"settings": "-log M = 4, 10 nM [3H]TRH, read-out: Antagonistic Rate (%) at Each Concentration (-log M)"}, "[5]": {"settings": "-log M = 5, 10 nM [3H]TRH, read-out: Antagonistic Rate (%) at Each Concentration (-log M)"}},
  "note": "Where two headings read alike, the source gives them in different places. Square brackets hold non-standard residues; d marks the D form. Ends that are not written are not given here. Peptide text beside a SMILES is read from it. pGlu = O=C1CC[C@@H](C(=O)O)N1; Nva = CCC[C@H](N)C(=O)O",
  "data": [
    {"molecule": "CNC1=Nc2ccc(Cl)cc2C(c2ccccc2)=[N+]([O-])C1", "note": "[Chlordiazepoxide, chlordiazepoxide]", "values": [
      {"measurement": "inhibition at 10 µM", "setting": "human TRH receptor; [3]", "result": -2.2, "unit": "%"},
      {"measurement": "inhibition at 100 µM", "setting": "human TRH receptor; [3]", "result": 7.1, "unit": "%"},
      {"measurement": "inhibition at 1000 µM", "setting": "human TRH receptor; [3]", "result": 46.8, "unit": "%"},
      {"measurement": "Antagonistic binding activity to the human TRH receptor, in words", "setting": "human TRH receptor", "result": "antagonistic activity increased in order of midazolam, chlordiazepoxide and oxazepam"}
    ]},
    {"molecule": "O=C1N[C@@H](Cc2c[nH]cn2)C(=O)N2CCC[C@@H]12", "note": "[Compound 2, Cyclo(His--Pro) His Pro-Diketopiperazine]", "values": [
      {"measurement": "inhibition at 100 µM", "setting": "human TRH receptor; [4]", "result": -1.1, "unit": "%"},
      {"measurement": "inhibition at 10 µM", "setting": "human TRH receptor; [5]", "result": 0.6, "unit": "%"}
    ]},
    {"molecule": "NC(=O)[C@@H]1CCCN1C(=O)[C@H](Cc1ccccc1)NC(=O)[C@@H]1CCC(=O)N1", "note": "[Compound 14, pGlu Phe Pro NH2] ([pGlu]-Phe-Pro-NH2)", "values": [
      {"measurement": "inhibition at 100 µM", "setting": "human TRH receptor; [4]", "result": 96.2, "unit": "%"},
      {"measurement": "inhibition at 10 µM", "setting": "human TRH receptor; [5]", "result": 74.2, "unit": "%"}
    ]},
    {"molecule": "CCC[C@H](NC(=O)[C@@H]1CCC(=O)N1)C(=O)N1CCC[C@H]1C(N)=O", "note": "[Compound 15, pGlu NVal Pro NH2] ([pGlu]-[Nva]-Pro-NH2)", "values": [
      {"measurement": "inhibition at 100 µM", "setting": "human TRH receptor; [4]", "result": 78.6, "unit": "%"},
      {"measurement": "inhibition at 10 µM", "setting": "human TRH receptor; [5]", "result": 33.4, "unit": "%"}
    ]},
    {"molecule": "CN1C(=O)CN=C(c2ccccc2F)c2cc([N+](=O)[O-])ccc21", "note": "[Flunitrazepam, flunitrazepam]", "values": [
      {"measurement": "inhibition at 10 µM", "setting": "human TRH receptor; [3]", "result": -0.5, "unit": "%"},
      {"measurement": "inhibition at 100 µM", "setting": "human TRH receptor; [3]", "result": -4, "unit": "%"},
      {"measurement": "inhibition at 1000 µM", "setting": "human TRH receptor; [3]", "result": -13.7, "unit": "%"},
      {"measurement": "Antagonistic binding activity to the human TRH receptor, in words", "setting": "human TRH receptor", "result": "no antagonistic binding was observed at all"}
    ]},
    {"molecule": "Cc1ncc2n1-c1ccc(Cl)cc1C(c1ccccc1F)=NC2", "note": "[Midazolam, midazolam]", "values": [
      {"measurement": "inhibition at 10 µM", "setting": "human TRH receptor; [3]", "result": 2.6, "unit": "%"},
      {"measurement": "inhibition at 100 µM", "setting": "human TRH receptor; [3]", "result": 12, "unit": "%"},
      {"measurement": "inhibition at 1000 µM", "setting": "human TRH receptor; [3]", "result": 69.7, "unit": "%"},
      {"measurement": "Antagonistic binding activity to the human TRH receptor, in words", "setting": "human TRH receptor", "result": "antagonistic activity increased in order of midazolam, chlordiazepoxide and oxazepam"}
    ]},
    {"molecule": "[L-proline-2,3,4,5-^3 H(N)]-(Pyro)Glu-His-Pro-NH2 [[^3 H] TRH]", "values": [
      {"measurement": "Specific binding, in words", "setting": "CHO dhfr- cells", "result": "no specific binding was detected at all"}
    ]},
    {"molecule": "pGlu His Pro Gly Lys ([pGlu]HPGK) [Compound 3]", "values": [
      {"measurement": "Antagonistic Rate (%) at Each Concentration (-log M)", "setting": "human TRH receptor; -log M = 5, 10 nM [3H]TRH", "result": 31.9, "unit": "%"},
      {"measurement": "Antagonistic Rate (%) at Each Concentration (-log M)", "setting": "human TRH receptor; -log M = 6, 10 nM [3H]TRH, 1 µM", "result": -0.6, "unit": "%"}
    ]},
    {"molecule": "[pGlu]-[Nva]-Pro-NH2 (SMILES CCC[C@H](NC(=O)[C@@H]1CCC(=O)N1)C(=O)N1CCC[C@H]1C(N)=O)", "note": "[pGlu NVal Pro NH2]", "values": [
      {"measurement": "Antagonistic Rate (%)", "setting": "[1]", "result": 33.4, "unit": "%"},
      {"measurement": "Antagonistic Rate (%)", "setting": "[2]", "result": 78.6, "unit": "%"}
    ]}
  ]
}
